Results reported in article PMC6587507, “Comparison of the metabolism of 10 chemicals in human and pig skin explants” (Journal of Applied Toxicology, 2018).
Read-outs that look alike come from different tables or passages of the source.

Experiments:
[1] = system: pig ear skin explants; experiment: Cutaneous distribution and mass balance of radioactivity in pig skin explants
Method: (§1) Human abdominal skin was obtained (with consent for research from a commercial supplier [L’Union Clinic, Rangueil hospital and Icelltis, Toulouse, France] with certified ethical procedures) from six male and 34 female healthy donors, 41 ± 11 years of age, undergoing cosmetic surgery. Abdominal skin was kept at 4°C during transports and placed in culture within 3 hours of surgery. Pig ear skin was a waste product of the meat industry (without hot steam treatment) from domestic pigs (female Pietrain breed, 6 months old, 80‐100 kg) obtained from a local slaughterhouse (Montauban, France). Ears were taken from the animals within 5 minutes of slaughter and were kept at 4°C during transport to the laboratory, which lasted a maximum of 2 hours. Pig skin samples were dried and then gently shaved.
(§2) The experiment and the preparation of the culture medium were performed under sterile conditions. Human and pig skin was cut with a dermatome to a thickness of 450 ± 50 μm. Skin punches were seeded dermal side down in polycarbonate Transwell® inserts from Corning Life Sciences (Avon, France; 4.16 cm^2 application area with an 8 μm pore size filter). […] The inserts were placed in a six‐well plate containing 1.5 mL culture medium and the skin explants incubated in a standard incubator at 37°C, under an atmosphere of 5% CO2 and 50 ± 10% relative humidity. The culture medium was Dulbecco's modified Eagle medium without phenol red supplemented with 8 mM L‐glutamine, 2 μg/mL streptomycin/penicillin, 25 ng/mL fungizone and 50 ng/mL gentamycin. Skin explants were incubated for 1 hour before application of the formulation.
(§3) The dosing volume was 10 μL/cm^2. For pig skin metabolism studies, which were carried out before the human skin experiments to ensure the analytics were optimal, 2.4 nmol/cm^2 of each chemical (only the ^14C‐labeled form) was applied on the skin and incubated for 24 hours for the measurement of metabolites in the medium. These tissues were further incubated for a total of 48 hours, with a replacement of the culture medium after 24 hours. This longer incubation time and the standard doses of 2.4 nmol/cm^2 were used to maximize the likelihood of the skin forming metabolites to develop analytical methods. The metabolites profiles in pig and human skin were compared in the medium sample at 24 hours of incubation. The metabolite profiles for the 48‐hour timepoint are not reported here since humans skin metabolism was measured at 24 hours only; however, for completeness, the distribution of radioactivity at the end of both pig (48 hours) and human (24 hours) skin incubations is reported. […] The doses were obtained by mixing radiolabeled and cold chemical. One replicate disc per donor and per dose was used. All chemicals were tested on four donors of pig and human skin, except for 2‐AAF and 4‐amino‐3‐nitrophenol (4‐A‐3‐NP), for which three donors were used. The medium was removed after 24 hours of incubation and stored at −20°C for analysis.
(§4) At the end of the experiment, the trans‐wells were dismantled and washed with appropriate solvent for each chemical. […] The cotton swabs were placed in 5 mL of appropriate solvent in a scintillation counting flask and placed in a sonicator bath for 20 minutes. Aliquots of 1 mL were counted by liquid scintillation, after addition of 15 mL of scintillation liquid. Tissue culture inserts were washed with 10 mL of appropriate solvent. One aliquot of 1 mL was counted by liquid scintillation, after addition of 15 mL of scintillation liquid. After media removal, wells were washed twice with 1 mL of the appropriate solvent. Washing solutions were counted by liquid scintillation, after addition of 15 mL of scintillation liquid.
(§5) Pig skin explants were digested using 3 mL Soluable (60°C for 24 hours) and counted by liquid scintillation. Skin extraction process was adapted according to the physicochemical properties of each chemical and its potential metabolites.

[2] = system: human abdominal skin explants
Method: as §1, §2, §3
(§6) After centrifugation, a 100 μL aliquot of the extract was counted by liquid scintillation. The pellet was dissolved in 3 mL Soluable (60°C, 24 hours) and then counted by liquid scintillation.
(§7) Analysis of the chemicals and their metabolites in medium after 24 hours of incubation with pig and human skin was measured by radio‐high‐performance liquid chromatography (HPLC) using an HPLC 1100 Series, Agilent and a Flow Scintillation Analyzer, Radiomatic 610 TR, Perkin Elmer (Villebon‐sur‐Yvette, France). […] To confirm that metabolites were the same in pig and human skin, medium samples were co‐injected on the new column. The metabolites were identified by LC‐electrospray ionization‐HRMS (HPLC‐ESI‐HRMS) with a RSLC3000 HPLC system coupled to a LTQ‐Orbitrap XL mass spectrometer (Thermo Scientific). The HPLC analytical conditions for identification and quantification of the metabolites for each chemical are summarized in Supporting information Table S1.

[3] = system: pig ear skin explants
Method: as §1, §2, §3, §6, §7

[4] = system: human abdominal skin explants; experiment: Cutaneous distribution and mass balance of radioactivity in human skin explants
Method: as §1, §2, §3, §4, §5

[5] = ref Chemspider (www.chemspider.com), cited from earlier work
[6] = pig skin, end of incubation (48 h), mean ± SD
[7] = human skin, end of incubation (24 h), mean ± SD

Row | Structure (SMILES) | Parent compound in the medium after 24 h ([2]; both, human, 24 h) | Total metabolites in the medium after 24 h ([2]; both, human, 24 h) | % Radioactivity in culture media after 24 h ([1]; pig skin, 2.4 nmol/cm^2) | Mass balance (% of applied dose at end of incubation) ([1]; pig skin, 48 h, 2.4 nmol/cm^2) | Medium radioactivity [1, 6] | Skin radioactivity [1, 6] | Skin surface radioactivity [1, 6] | Parent compound in the medium after 24 h ([3]; pig skin, 24 h, mean ± SEM) | Mass balance (% of applied dose at end of incubation) ([4]; human skin, 24 h) | Medium radioactivity [4, 7] | Skin radioactivity [4, 7] | Skin surface radioactivity [4, 7] | LogP [5] | Maximum water solubility [5] | % Radioactivity in culture media after 24 h ([4]; human skin, 24 h) | further results
1 | CCCOC(=O)c1ccc(O)cc1 [Propyl paraben] | 0.2 ± 0.2 % Applied dose | 55.8 ± 2.9 % Applied dose | – | – | – | – | – | – | – | – | – | – | – | – | – | Mass balance (% of applied dose at end of incubation) ([1]; female, Pietrain, pig, 48 h): 98.7 ± 3.3 % of applied dose; Medium radioactivity ([1]; female, Pietrain, pig, 48 h): 77.8 ± 4.8 % of the applied dose; Skin radioactivity ([1]; female, Pietrain, pig, 48 h): 15.9 ± 3.0 % of the applied dose; Skin surface radioactivity ([1]; female, Pietrain, pig, 48 h): 5.0 ± 1.8 % of the applied dose; Number of metabolites detected in the culture medium ([2]; both, human, 24 h): 12; Parent compound in the medium after 24 h ([3]; female, Pietrain, pig, 24 h): 0.0 % Applied dose; Total metabolites in the medium after 24 h ([3]; female, Pietrain, pig, 24 h): 50.3 ± 1.1 % Applied dose; % Radioactivity in culture media after 24 h ([4]; both, human, 24 h): 66.0 ± 9.2%; Mass balance (% of applied dose at end of incubation) ([4]; both, human, 24 h): 91.8 ± 6.6 % of applied dose; Medium radioactivity ([4]; both, human, 24 h): 61.5 ± 3.9 % of the applied dose; Skin radioactivity ([4]; both, human, 24 h): 27.6 ± 7.0 % of the applied dose; Skin surface radioactivity ([4]; both, human, 24 h): 2.8 ± 2.3 % of the applied dose
2 | CCOc1ccc2ccc(=O)oc2c1 [7‐EC, 7‐ethoxycoumarin] | – | – | 62.5 ± 2.7% | 100.0 ± 3.8 % of applied dose | 89.7 ± 3.4 % of the applied dose | 9.3 ± 0.4 % of the applied dose | 1.0 ± 0.1 % of the applied dose | 60.8 ± 0.6 % Applied dose | 91.9 ± 3.8 % of applied dose | 66.7 ± 3.5 % of the applied dose | 24.1 ± 6.2 % of the applied dose | 1.4 ± 0.2 % of the applied dose | 2.30 | 0.78 mg/mL | – | Number of metabolites detected in the culture medium ([2]; human skin, 24 h): three; Parent compound in the medium after 24 h ([2]; human skin, 24 h, mean ± SEM): 57.7 ± 3.1 % Applied dose; Number of metabolites detected in the culture medium ([3]; pig skin, 24 h): three
3 | COc1cc(C=O)ccc1O [Vanillin] | 0.3 ± 0.09 % Applied dose | 51.1 ± 2.3 % Applied dose | 58.6 ± 5.2% | 90.7 ± 1.7 % of applied dose | 77.4 ± 5.1 % of the applied dose | – | – | 0.1 ± 0.04 % Applied dose | 104.4 ± 6.0 % of applied dose | 60.0 ± 7.8 % of the applied dose | – | – | – | 8.5 mg/mL | 60.0 ± 7.8% | Number of metabolites detected in the culture medium ([3]; pig skin, 24 h): Six
4 | Oc1cccc(O)c1 [Resorcinol] | 4.8 ± 0.7 % Applied dose | 41.9 ± 0.6 % Applied dose | 58.6 ± 7.6% | 92.7 ± 5.92 % of applied dose | 71.0 ± 7.1 % of the applied dose | – | – | 1.8 ± 0.8 % Applied dose | 94.2 ± 3.5 % of applied dose | 54.4 ± 1.5 % of the applied dose | – | – | 0.80 | – | – | Glucuronide conjugate as share of the total metabolites observed ([2]; both, human, 24 h): > 78 % of the total metabolites; Sulfate conjugate as share of the total metabolites ([2]; both, human, 24 h): 19 % of the total metabolites
5 | CC(=O)Nc1ccc2c(c1)Cc1ccccc1-2 [2‐AAF, 2‐acetyl aminofluorene] | – | – | 52.8 ± 2.3% | 87.8 ± 1.1 % of applied dose | 73.9 ± 1.1 % of the applied dose | 12.6 ± 1.5 % of the applied dose | 1.4 ± 0.4 % of the applied dose | – | 91.6 ± 4.5 % of applied dose | 48.3 ± 4.2 % of the applied dose | 40.5 ± 5.5 % of the applied dose | 2.8 ± 0.3 % of the applied dose | 3.10 | 0.004 mg/mL | 48.3 ± 4.2% | Maximum solubility in ethanol ([5]; in ethanol): 9.6 mg/mL
6 | OCC=Cc1ccccc1 [Cinnamyl alcohol] | – | – | 63.2 ± 1.9% | 96.8 ± 1.9 % of applied dose | 87.1 ± 2.7 % of the applied dose | 8.5 ± 0.8 % of the applied dose | 1.2 ± 1.1 % of the applied dose | 0.0 % Applied dose | 99.9 ± 5.8 % of applied dose | 83.5 ± 4.8 % of the applied dose | 16.2 ± 3.2 % of the applied dose | 0.2 ± 0.1 % of the applied dose | 1.95 | 4.0 mg/mL | 83.5 ± 4.8 % | Number of metabolites detected in the culture medium ([2]; human skin, 24 h): eight; Parent compound in the medium after 24 h ([2]; human skin, 24 h, mean ± SEM): 0.2 ± 0.03 % Applied dose
7 | Nc1ccc(OC2OC(C(=O)O)C(O)C(O)C2O)cc1[N+](=O)[O-] (stereo not shown) [4‐A‐3‐NP‐glucuronide] | – | – | – | – | – | – | – | – | – | – | – | – | – | – | – | Amount of metabolite in the medium after 24 h [2]: 35.0 ± 2.4 % Applied dose; Amount of metabolite in the medium after 24 h [3]: 45.5 ± 0.2 % Applied dose
8 | Cn1c(N)nc2c3cccnc3ccc21 [IQ, 2‐amino‐3‐methylimidazo[4,5‐f]quinoline] | – | – | 30.1 ± 2.3% | 96.3 ± 6.6 % of applied dose | 54.8 ± 8.3 % of the applied dose | 33.6 ± 5.1 % of the applied dose | 7.8 ± 3.9 % of the applied dose | – | 94.5 ± 10.6 % of applied dose | 10.5 ± 13.4 % of the applied dose | 66.0 ± 12.3 % of the applied dose | 17.9 ± 3.7 % of the applied dose | 1.47 | 0.53 mg/mL | 10.5 ± 13.4% | Metabolites detected in the skin or culture media ([2]; human skin): no metabolites were detected; Metabolites detected in the skin or culture media ([3]; pig skin): no metabolites were detected
9 | O=C(O[C@@H]1O[C@H](C(=O)O)[C@@H](O)[C@H](O)[C@H]1O)c1ccccc1 [II (benzoic acid glucuronide), benzoic acid glucuronide] | – | – | – | – | – | – | – | – | – | – | – | – | – | – | – | Amount of metabolite in the medium after 24 h [2]: 4.6 ± 0.4 % Applied dose; Amount of metabolite in the medium after 24 h [3]: 0.5 ± 0.04 % Applied dose
